Assay [1] deals with TGFb/SMAD Signaling Pathway SBE reporter cell line. Put plainly: TGFb reporter assay (luciferase). In kind it is cell-based. The following applies: 5-6 h preincubation, then TGFb, 18 h, luminescence. As to the method:
TGFb/SMAD Signaling Pathway SBE reporter cell line was obtained from BPS Bioscience. Cells were passed/expanded/stored in liquid nitrogen per supplier's instruction with the exception that growth media was changed to DMEM-C with Geneticin (DMEM supplemented with 10% fetal bovine serum, 1× NEAA, 1 mM Pyruvate, 2 mM glutamine, 50 μg/mL penicillin, 50 U/mL streptomycin and 400 ug/mL of Geneticin). The assay media was MEM supplemented with 0.5% fetal bovine serum, 1× NEAA, 1 mM Pyruvate, 50 μg/mL penicillin and 50 U/mL streptomycin.
Reporter cells were harvested from the tissue culture flasks by incubation in small quantity of Versene at room temperature for three to five minutes after the media in the flask was removed and cells rinsed with PBS. Cells were counted and diluted in the assay media at ˜0.8×10^6 cells/mL then 50 uL/well were added to 96-well assay plate. Test samples (at desired concentrations diluted in assay media) were added to assay plate containing the 50 uL/well of cells (or media only), 50 uL per well, and incubated for 5-6 hours at 37° C. in a 5% CO2 humidified incubator. After that time, 15 uL of TGFb diluted to 12.5 ng/mL in the assay media was added to the plate. Controls included TGFb titration (from 25 to 0 ng/mL) without inhibitors, and media only (without cells, inhibitor or TGFb). Plates were incubated at 37° C. in a 5% CO2 humidified incubator for 18 h. Luciferase substrate solution was subsequently added at 75 uL per well, incubated in dark with shaking at room temperature for 10 min, and luminescence was measured using a luminometer.

The target in the next assay is T1, ALK5 (Homo sapiens, UniProt P36897).
T1 construct: purchased Reaction Biology Corp (Malvern, PA)
T1 sequence (P36897 34-503): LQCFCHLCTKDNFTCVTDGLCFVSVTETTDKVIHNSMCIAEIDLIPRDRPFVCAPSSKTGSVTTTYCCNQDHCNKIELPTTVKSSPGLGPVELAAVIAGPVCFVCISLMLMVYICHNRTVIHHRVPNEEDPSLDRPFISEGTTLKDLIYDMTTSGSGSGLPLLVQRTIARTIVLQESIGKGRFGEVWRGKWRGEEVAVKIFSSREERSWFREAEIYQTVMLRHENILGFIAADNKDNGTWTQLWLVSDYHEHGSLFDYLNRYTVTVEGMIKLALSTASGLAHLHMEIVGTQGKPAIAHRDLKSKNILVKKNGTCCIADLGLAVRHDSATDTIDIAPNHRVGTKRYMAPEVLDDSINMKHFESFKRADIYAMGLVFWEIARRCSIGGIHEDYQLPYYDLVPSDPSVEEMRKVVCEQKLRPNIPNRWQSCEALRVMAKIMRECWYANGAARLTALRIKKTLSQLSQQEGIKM
Put plainly: ALK5 enzyme inhibition assay (33P-ATP filter-binding, Reaction Biology Corp). The format is biochemical. Conditions: casein substrate 1 mg/mL, 10 uM ATP. On the procedure:
ALK5 enzyme inhibition assays were performed by Reaction Biology Corp (Malvern, PA). 1 mg/mL of peptide subtrate (casein) and 10 uM ATP were prepared in a mixture of fresh reaction buffer. The kinase was delivered into the substrate solution which was gently mixed. Compounds in 100% DMSO were added to the kinase reaction mixture by Acoustic technology (Echo550; nanoliter range) and the mixture was incubated for 20 min at room temperature. ^33P-ATP (Specific activity 10 uCi/uL) was added into the reaction mixture to initiate the reaction and the reaction mixture was incubated for 2 hours at room temperature. Radioactivity was detected by filter-binding method and kinase activity data were expressed as the percent remaining kinase activity in test samples compared to vehicle (dimethyl sulfoxide) reactions. IC50 values and curve fits were obtained using Prism (GraphPad Software).

Regarding `Cc1cccc(-c2nc(CNCCc3ccnc4ccccc34)[nH]c2-c2ccc3ncnn3c2)n1` [Compound 1.60, N-((5-([1,2,4]triazolo[1,5-a]pyridin-6-yl)-4-(6-methylpyridin-2-yl)-1H-imidazol-2-yl)methyl)-2-(quinolin-4-yl)ethan-1-amine], the IC50 (as a rule, the concentration needed to halve the response being measured) in assay [1] lay in the range of 10 to 100 nM; at ALK5, 100 to 1000 nM.
`Cc1cccc(-c2nc(CNCC3CC3)[nH]c2-c2ccc3ncnn3c2)n1` [Compound 1.8, 1-(5-([1,2,4]triazolo[1,5-a]pyridin-6-yl)-4-(6-methylpyridin-2-yl)-1H-imidazol-2-yl)-N-(cyclopropyl-methyl)methanamine]: the 50% inhibitory concentration (IC50) was 100 to 1000 nM in assay [1] and 1000 to 10000 nM at ALK5.
On to `CC(=O)NC1Cc2ccc(NCc3nc(-c4cccc(C)n4)c(-c4ccc5ncnn5c4)[nH]3)cc2C1` (stereo not shown) [Compound 1.25, N-(5-(((5-([1,2,4]triazolo[1,5-a]pyridin-6-yl)-4-(6-methylpyridin-2-yl)-1H-imidazol-2-yl)methyl)amino)-2,3-dihydro-1H-inden-2-yl)acetamide], for which the IC50 (in assay [1]; on ALK5) was 100 to 1000 nM in each case.
Take `Cc1cccc(-c2nc(CN[C@@H]3c4ccccc4C[C@H]3O)[nH]c2-c2ccc3ncnn3c2)n1` [Compound 1.46, (1R,2R)-1-(((5-([1,2,4]triazolo[1,5-a]pyridin-6-yl)-4-(6-methylpyridin-2-yl)-1H-imidazol-2-yl)methyl)amino)-2,3-dihydro-1H-inden-2-ol]: the IC50 in assay [1] is 10 to 100 nM; on ALK5 it was 100 to 1000 nM.
In the case of `Cc1cccc(-c2nc(CNc3ccc4c(c3)CNCC4)[nH]c2-c2ccc3ncnn3c2)n1` [Compound 1.1, N-((5-([1,2,4]triazolo[1,5-a]pyridin-6-yl)-4-(6-methylpyridin-2-yl)-1H-imidazol-2-yl)methyl)-1,2,3,4-tetrahydroisoquinolin-7-amine], the half-inhibitory concentration (IC50) (in assay [1]; on ALK5) was 100 to 1000 nM throughout.

These data come from patent US20210154188A1, “ALK5 INHIBITORS, CONJUGATES, AND USES THEREOF” (SILVERBACK THERAPEUTICS, INC., priority 2018, published 2021).
